Test results published in patent US12539292B2, “BRM targeting compounds and associated methods of use” (Arvinas Operations, Inc., priority 2018, dated 2026).

Biological target: T1, BRM (Homo sapiens, UniProt P51531)
T1 construct: In-Cell Western Screen of BRM Degradation in SW1573 Cells; endogenous in cells; host or cells: SW1573
Test: In-cell Western screen of BRM degradation in SW1573 cells (Dmax and DC50)
Assay type: cell-based
Details: BRM degradation, SW1573 cells; for DC50: read-out: DC50; for Dmax: read-out: Dmax (%) (% degraded)
Method in brief: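 Near-infrared imaging on a LI-COR Odyssey (800 and 680 nm channels) quantifies BRM remaining in fixed SW1573 cells. Cells are dosed for 18-20 h at 0.1% final DMSO, and degradation is expressed as Dmax and DC50.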

[1] = when tested at the top concentration of between 0.3 and 10 μM

T1 sequence (P51531 whole entry): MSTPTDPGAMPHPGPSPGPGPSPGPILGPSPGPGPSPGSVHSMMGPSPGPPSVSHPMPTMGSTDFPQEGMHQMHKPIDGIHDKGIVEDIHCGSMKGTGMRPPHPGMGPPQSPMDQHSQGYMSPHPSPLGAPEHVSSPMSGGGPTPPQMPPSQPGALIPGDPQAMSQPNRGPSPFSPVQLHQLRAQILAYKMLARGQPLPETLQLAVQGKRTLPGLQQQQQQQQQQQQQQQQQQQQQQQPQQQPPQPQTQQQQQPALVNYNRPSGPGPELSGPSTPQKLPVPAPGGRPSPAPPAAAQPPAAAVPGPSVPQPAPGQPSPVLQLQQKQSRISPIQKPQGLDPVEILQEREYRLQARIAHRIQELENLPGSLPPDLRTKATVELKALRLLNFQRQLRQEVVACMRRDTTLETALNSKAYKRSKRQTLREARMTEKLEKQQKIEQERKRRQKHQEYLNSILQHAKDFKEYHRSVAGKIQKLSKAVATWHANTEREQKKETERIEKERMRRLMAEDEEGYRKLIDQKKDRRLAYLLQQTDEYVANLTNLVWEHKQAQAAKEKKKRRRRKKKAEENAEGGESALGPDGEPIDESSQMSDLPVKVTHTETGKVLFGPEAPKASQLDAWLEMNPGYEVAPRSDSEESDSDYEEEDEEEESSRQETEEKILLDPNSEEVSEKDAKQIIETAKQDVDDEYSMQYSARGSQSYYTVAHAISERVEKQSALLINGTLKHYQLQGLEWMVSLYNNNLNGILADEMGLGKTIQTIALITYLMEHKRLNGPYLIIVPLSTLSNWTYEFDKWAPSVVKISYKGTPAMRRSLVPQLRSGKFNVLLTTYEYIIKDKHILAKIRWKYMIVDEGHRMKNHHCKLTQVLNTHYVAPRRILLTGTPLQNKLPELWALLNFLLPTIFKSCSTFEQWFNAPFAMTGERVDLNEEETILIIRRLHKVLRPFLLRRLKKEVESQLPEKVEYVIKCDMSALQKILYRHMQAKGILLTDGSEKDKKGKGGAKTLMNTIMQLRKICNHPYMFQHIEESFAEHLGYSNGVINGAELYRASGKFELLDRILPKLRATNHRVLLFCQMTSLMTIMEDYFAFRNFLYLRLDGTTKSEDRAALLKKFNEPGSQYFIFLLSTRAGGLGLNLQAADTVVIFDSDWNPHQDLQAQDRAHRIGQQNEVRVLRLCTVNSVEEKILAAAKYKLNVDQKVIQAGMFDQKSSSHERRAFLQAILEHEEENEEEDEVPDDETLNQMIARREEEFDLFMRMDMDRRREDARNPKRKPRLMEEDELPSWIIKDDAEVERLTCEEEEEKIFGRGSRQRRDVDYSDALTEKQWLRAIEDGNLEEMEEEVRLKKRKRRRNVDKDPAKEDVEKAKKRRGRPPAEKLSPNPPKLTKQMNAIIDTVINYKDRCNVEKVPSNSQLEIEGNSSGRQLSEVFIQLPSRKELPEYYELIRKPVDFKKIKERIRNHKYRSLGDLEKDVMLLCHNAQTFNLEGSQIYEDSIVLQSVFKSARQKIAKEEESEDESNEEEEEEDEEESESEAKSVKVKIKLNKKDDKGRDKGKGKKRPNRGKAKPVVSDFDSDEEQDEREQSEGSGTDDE

**Q.** Which results are given for `Cc1ncsc1-c1ccc(CNC(=O)[C@@H]2C[C@@H](O)CN2C(=O)[C@@H](NC(=O)CN2CCN(CCOCCOCCCc3cc(N4C5CCC4CN(c4cc(-c6ccccc6O)nnc4N)C5)ccn3)CC2)C(C)(C)C)cc1` [compound 45, (2S,4R)-1-[(2S)-2-[2-[4-(2-[2-[3-(4-[3-[3-amino-6-(2-hydroxyphenyl)pyridazin-4-yl]-3,8-diazabicyclo[3.2.1]octan-8-yl]pyridin-2-yl)propoxy]ethoxy]ethyl)piperazin-1-yl]acetamido]-3,3-dimethylbutanoyl]-4-hydroxy-N-[[4-(4-methyl-1,3-thiazol-5-yl)phenyl]methyl]pyrrolidine-2-carboxamide]?
**A.** DC50: > 30 nM; Dmax [1]: > 75%

**Q.** What does the source list for `Cc1ncsc1-c1ccc([C@H](C)NC(=O)[C@@H]2C[C@@H](O)CN2C(=O)[C@H](c2cc(OCCN3CCN(CCOc4cc(N5C6CCC5CN(c5cc(-c7ccccc7O)nnc5N)C6)ccn4)CC3)no2)C(C)C)cc1` [compound 46, (2S,4R)-1-[(2S)-2-[3-[2-(4-[2-[(4-[3-[3-amino-6-(2-hydroxyphenyl)pyridazin-4-yl]-3,8-diazabicyclo[3.2.1]octan-8-yl]pyridin-2-yl)oxy]ethyl]piperazin-1-yl)ethoxy]-1,2-oxazol-5-yl]-3-methylbutanoyl]-4-hydroxy-N-[(1S)-1-[4-(4-methyl-1,3-thiazol-5-yl)phenyl]ethyl]pyrrolidine-2-carboxamide]?
**A.** DC50: > 30 nM; Dmax [1]: 50 to 75%

**Q.** With `Cc1ncsc1-c1ccc([C@H](C)NC(=O)[C@@H]2C[C@@H](O)CN2C(=O)[C@@H](c2cc(OCCN3CCN(CCOc4cc(N5C6CCC5CN(c5cc(-c7ccccc7O)nnc5N)C6)ccn4)CC3)no2)C(C)C)cc1` [compound 47] as the compound, how does the DC50 read?
**A.** The DC50 was less than 2.5 nM.

**Q.** And the Dmax [1]?
**A.** Its Dmax is greater than 75%.

**Q.** For `Cc1ncsc1-c1ccc(CNC(=O)[C@@H]2C[C@@H](O)CN2C(=O)[C@@H](NC(=O)CN2CCN(c3ccc(CCOCCCc4cc(N5C6CCC5CN(c5cc(-c7ccccc7O)nnc5N)C6)ccn4)cn3)CC2)C(C)(C)C)cc1` [compound 48, (2S,4R)-1-((2S)-2-(2-(4-(5-(2-(3-(4-(3-(3-amino-6-(2-hydroxyphenyl)pyridazin-4-yl)-3,8-diazabicyclo[3.2.1]octan-8-yl)pyridin-2-yl)propoxy)ethyl)pyridin-2-yl)piperazin-1-yl)acetamido)-3,3-dimethylbutanoyl)-4-hydroxy-N-(4-(4-methylthiazol-5-yl)benzyl)pyrrolidine-2-carboxamide], which DC50 is on record?
**A.** The DC50 was greater than 30 nM.

**Q.** What about the Dmax [1] of the same compound?
**A.** Its Dmax is greater than 75%.

**Q.** What does the source list for `Cc1ncsc1-c1ccc([C@H](C)NC(=O)[C@@H]2C[C@@H](O)CN2C(=O)[C@@H](NC(=O)COC2CN(CCN3CCN(CCCc4cc(N5C6CCC5CN(c5cc(-c7ccccc7O)nnc5N)C6)ccn4)CC3)C2)C(C)(C)C)cc1` [compound 49, (2S,4R)-1-((2S)-2-(2-((1-(2-(4-(3-(4-(3-(3-amino-6-(2-hydroxyphenyl)pyridazin-4-yl)-3,8-diazabicyclo[3.2.1]octan-8-yl)pyridin-2-yl)propyl)piperazin-1-yl)ethyl)azetidin-3-yl)oxy)acetamido)-3,3-dimethylbutanoyl)-4-hydroxy-N-((S)-1-(4-(4-methylthiazol-5-yl)phenyl)ethyl)pyrrolidine-2-carboxamide]?
**A.** DC50: > 30 nM; Dmax [1]: 50 to 75%

**Q.** How did the DC50 turn out when `Cc1ncsc1-c1ccc([C@H](C)NC(=O)[C@@H]2C[C@@H](O)CN2C(=O)[C@@H](NC(=O)Cc2ccc(N3CCN(CCOCCCc4cc(N5C6CCC5CN(c5cc(-c7ccccc7O)nnc5N)C6)ccn4)CC3)nc2)C(C)(C)C)cc1` [compound 50, (2S,4R)-1-[(2S)-2-[2-[6-(4-[2-[3-(4-[3-[3-amino-6-(2-hydroxyphenyl)pyridazin-4-yl]-3,8-diazabicyclo[3.2.1]octan-8-yl]pyridin-2-yl)propoxy]ethyl]piperazin-1-yl)pyridin-3-yl]acetamido]-3,3-dimethylbutanoyl]-4-hydroxy-N-[(1S)-1-[4-(4-methyl-1,3-thiazol-5-yl)phenyl]ethyl]pyrrolidine-2-carboxamide] was run?
**A.** The DC50 was 10 to 30 nM.

**Q.** What about the Dmax [1] of the same compound?
**A.** Its Dmax is greater than 75%.

**Q.** What does the source list for `Cc1ncsc1-c1ccc([C@H](C)NC(=O)[C@@H]2C[C@@H](O)CN2C(=O)[C@@H](NC(=O)COCCOCCOCCCCN2CCOC3(CCN(c4cc(-c5ccccc5O)nnc4N)CC3)C2)C(C)(C)C)cc1` [compound 51, (2S,4R)-1-[(2S)-2-(2-[2-[2-(4-[9-[3-amino-6-(2-hydroxyphenyl)pyridazin-4-yl]-1-oxa-4,9-diazaspiro[5.5]undecan-4-yl]butoxy)ethoxy]ethoxy]acetamido)-3,3-dimethylbutanoyl]-4-hydroxy-N-[(1S)-1-[4-(4-methyl-1,3-thiazol-5-yl)phenyl]ethyl]pyrrolidine-2-carboxamide]?
**A.** DC50: 10 to 30 nM; Dmax [1]: > 75%

**Q.** How did the DC50 turn out when `Cc1ncsc1-c1ccc(CNC(=O)[C@@H]2C[C@@H](O)CN2C(=O)[C@@H](NC(=O)COCCOCCOCCOC/C=C/c2cc(N3C4CCC3CN(c3cc(-c5ccccc5O)nnc3N)C4)ccn2)C(C)(C)C)cc1` [compound 52, (2S,4R)-1-((S,E)-18-(4-(3-(3-amino-6-(2-hydroxyphenyl)pyridazin-4-yl)-3,8-diaza-bicyclo[3.2.1]octan-8-yl)pyridin-2-yl)-2-tert-butyl-4-oxo-6,9,12,15-tetraoxa-3-azaoctadec-17-en-1-oyl)-4-hydroxy-N-(4-(4-methylthiazol-5-yl)benzyl)pyrrolidine-2-carboxamide] was run?
**A.** The DC50 was 10 to 30 nM.

**Q.** What about the Dmax [1] of the same compound?
**A.** Its Dmax is greater than 75%.

**Q.** `Cc1ncsc1-c1ccc(CNC(=O)[C@@H]2C[C@@H](O)CN2C(=O)[C@@H](NC(=O)COCCOCCOCCOCCCc2cc(N3C4CCC3CN(c3cc(-c5ccccc5O)nnc3N)C4)ccn2)C(C)(C)C)cc1` [compound 53, (2S,4R)-1-((S)-18-(4-(3-(3-amino-6-(2-hydroxyphenyl)pyridazin-4-yl)-3,8-diaza-bicyclo[3.2.1]octan-8-yl)pyridin-2-yl)-2-tert-butyl-4-oxo-6,9,12,15-tetraoxa-3-azaoctadecan-1-oyl)-4-hydroxy-N-(4-(4-methylthiazol-5-yl)benzyl)pyrrolidine-2-carboxamide] was tested. Which DC50 did it give?
**A.** Its DC50 is 2.5 to 10 nM.

**Q.** And the Dmax [1]?
**A.** Its Dmax is greater than 75%.

**Q.** For `Cc1ncsc1-c1ccc([C@H](C)NC(=O)[C@@H]2C[C@@H](O)CN2C(=O)[C@H](c2onc(OCCN3CCN(CCOc4cc(N5C6CCC5CN(c5cc(-c7ccccc7O)nnc5N)C6)ccn4)CC3)c2Cl)C(C)C)cc1` [compound 54, (2S,4R)-1-((2S)-2-(3-(2-(4-(2-((4-(3-(3-amino-6-(2-hydroxyphenyl)pyridazin-4-yl)-3,8-diazabicyclo[3.2.1]octan-8-yl)pyridin-2-yl)oxy)ethyl)piperazin-1-yl)ethoxy)-4-chloroisoxazol-5-yl)-3-methylbutanoyl)-4-hydroxy-N-((S)-1-(4-(4-methylthiazol-5-yl)phenyl)ethyl)pyrrolidine-2-carboxamide], which DC50 is on record?
**A.** Its DC50 is greater than 30 nM.

**Q.** What about the Dmax [1] of the same compound?
**A.** The Dmax was greater than 75%.

**Q.** Which DC50 does the source give for `Cc1ncsc1-c1ccc([C@H](C)NC(=O)[C@@H]2C[C@@H](O)CN2C(=O)[C@@H](c2onc(OCCN3CCN(CCOc4cc(N5C6CCC5CN(c5cc(-c7ccccc7O)nnc5N)C6)ccn4)CC3)c2Cl)C(C)C)cc1` [compound 55, (2S,4R)-1-((2R)-2-(3-(2-(4-(2-((4-(3-(3-amino-6-(2-hydroxyphenyl)pyridazin-4-yl)-3,8-diazabicyclo[3.2.1]octan-8-yl)pyridin-2-yl)oxy)ethyl)piperazin-1-yl)ethoxy)-4-chloroisoxazol-5-yl)-3-methylbutanoyl)-4-hydroxy-N-((S)-1-(4-(4-methylthiazol-5-yl)phenyl)ethyl)pyrrolidine-2-carboxamide] here?
**A.** Its DC50 is less than 2.5 nM.

**Q.** And the Dmax [1]?
**A.** Its Dmax is greater than 75%.

**Q.** Which DC50 does the source give for `Cc1ncsc1-c1ccc(CNC(=O)[C@@H]2C[C@@H](O)CN2C(=O)C(c2cc(OCC=Cc3ccc(OC4CC(Oc5cc(N6C7CC[C@@H]6CN(c6cc(-c8ccccc8O)nnc6N)C7)ccn5)C4)cn3)no2)C(C)C)cc1` (stereo partly drawn) [compound 56, (2S,4R)-1-(2-(3-((3-(5-((1r,3r)-3-((4-(3-(3-amino-6-(2-hydroxyphenyl)pyridazin-4-yl)-3,8-diazabicyclo[3.2.1]octan-8-yl)pyridin-2-yl)oxy)cyclobutoxy)pyridin-2-yl)allyl)oxy)isoxazol-5-yl)-3-methylbutanoyl)-4-hydroxy-N-(4-(4-methylthiazol-5-yl)benzyl)pyrrolidine-2-carboxamide] here?
**A.** The DC50 was less than 2.5 nM.

**Q.** What about the “Dmax (%) (% degraded)” value [1] of the same compound?
**A.** Its value is “A (A > 75)”.

**Q.** With `Cc1ncsc1-c1ccc(CNC(=O)[C@H]2C[C@H](O)CN2C(=O)C(c2cc(OCCN3CCN(CCOc4cc(N5C6CCC5CN(c5cc(-c7ccccc7O)nnc5N)C6)ccn4)CC3)no2)C(C)C)cc1` (stereo partly drawn) [compound 57, (2R,4S)-1-(2-(3-(2-(4-(2-((4-(3-(3-amino-6-(2-hydroxyphenyl)pyridazin-4-yl)-3,8-diazabicyclo[3.2.1]octan-8-yl)pyridin-2-yl)oxy)ethyl)piperazin-1-yl)ethoxy)isoxazol-5-yl)-3-methylbutanoyl)-4-hydroxy-N-(4-(4-methylthiazol-5-yl)benzyl)pyrrolidine-2-carboxamide] as the compound, how does the Dmax [1] read?
**A.** Its Dmax is less than 50%.

**Q.** Which results are given for `Cc1ncsc1-c1ccc([C@H](C)NC(=O)[C@@H]2C[C@@H](O)CN2C(=O)[C@@H](NC(=O)Cc2ccc(N3CCN(CCO[C@H]4C[C@H](Oc5cc(N6C7CCC6CN(c6cc(-c8ccccc8O)nnc6N)C7)ccn5)C4)CC3)nc2)C(C)(C)C)cc1` [compound 58, (2S,4R)-1-((2S)-2-(2-(6-(4-(2-((1r,3r)-3-((4-(3-(3-amino-6-(2-hydroxyphenyl)pyridazin-4-yl)-3,8-diazabicyclo[3.2.1]octan-8-yl)pyridin-2-yl)oxy)cyclobutoxy)ethyl)piperazin-1-yl)pyridin-3-yl)acetamido)-3,3-dimethylbutanoyl)-4-hydroxy-N-((S)-1-(4-(4-methylthiazol-5-yl)phenyl)ethyl)pyrrolidine-2-carboxamide]?
**A.** DC50: > 30 nM; Dmax [1]: 50 to 75%
